Reference: patent US9073853B2, “Cycloalkane carboxylic acid derivatives as CXCR3 receptor antagonists” (Sanofi, priority 2011, dated 2015)
Structures can show the parent of a compound that is named as a salt.

Biological target: human CXCR3-A receptor (Homo sapiens (Human), UniProt P49682)
Experiment: 125I-CXCL10 competition radioligand binding assay
Details: displacement of 125I-CXCL10 from membranes of CHO cells expressing human recombinant CXCR3-A
Procedure: IC50 values were determined for the test compounds and used to explore the structure-activity relationships (SAR). […] This cell line was registered in Sanofi-Aventis cell line bank. […] Cell suspension was diluted with PBS and cells were collected with centrifugation at 230 g for 10 minutes at 10° C. with a Juan centrifuge. […] The supernatant was carefully collected and centrifuged at 100,000×g for 60 min at 4° with a Beckman Avanti J30 centrifuge. […] Protein concentration was determined with Bio-Rad protein assay (Cat No 500-0006). Membrane aliquots were stored at -80° C. […] The composition of the binding assay buffer was determined in a course of detailed optimization procedure. […] Binding reaction was initiated by adding of membranes (10-20 μg proteins, approximately 5×10^5 cell equivalents) to the reaction mixture. After 60 minutes of incubation at 25° C. the reaction was terminated by rapid filtration over GF/B glass fiber filters that were pre-soaked with 0.5% polyethyleneimine (Fluka Analytical, P3143) for 1 hour, using a Skatron cell harvester device. Filters then were washed with 8 ml of ice-cold wash buffer (modified binding buffer in which BSA was omitted and the concentration of NaCl was adjusted to 500 mM concentration). The radioactivity retained on the filters was measured by a Wizard 1470 Automatic Gamma counter. Test compounds were dissolved prior to the binding assay at a concentration of 10 mM in DMSO. Stock solutions were stored at -20° C. for not longer than 3 months. […] Before adding these solutions of test compound to the binding reaction mixture, an intermediate dilution procedure was applied, in which 30 μL of each solution sample was transferred into a dilution tube containing 970 μL of binding assay buffer. […] The IC50 values and Hill slopes for competition binding data were obtained using nonlinear four-parametric curve fitting method.

human CXCR3-A receptor, sequence (P49682 whole entry): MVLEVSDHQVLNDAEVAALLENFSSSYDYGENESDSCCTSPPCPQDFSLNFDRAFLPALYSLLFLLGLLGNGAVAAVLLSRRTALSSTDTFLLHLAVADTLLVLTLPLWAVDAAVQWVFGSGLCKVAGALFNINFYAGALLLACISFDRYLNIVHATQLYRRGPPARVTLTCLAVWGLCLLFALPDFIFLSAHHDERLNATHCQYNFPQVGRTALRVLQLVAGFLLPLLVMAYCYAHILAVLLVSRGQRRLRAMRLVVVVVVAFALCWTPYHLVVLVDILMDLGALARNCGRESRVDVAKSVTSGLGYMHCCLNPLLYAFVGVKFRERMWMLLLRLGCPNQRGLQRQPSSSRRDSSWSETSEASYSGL

Row | IC50 [nM] | SMILES
1 | 360 | Cc1cc(CN(C[C@H]2CC[C@H](C(=O)O)CC2)[C@@H]2CCc3cc(Cl)ccc32)ccc1OCCN1C(=O)CCC1=O [Example 31, trans-4-[(((R)-5-Chloro-indan-1-yl)-{4-[2-(2,5-dioxo-pyrrolidin-1-yl)-ethoxy]-3-methyl-benzyl}-amino)-methyl]-cyclohexanecarboxylic acid]
2 | 105 | Cc1cc([C@@H](C)N(Cc2ccc(OCCN3C(=O)CCC3=O)c(C)c2)[C@H]2C[C@@H](C(=O)O)C2)ccc1Cl [Example 129, cis-3-([(R)-1-(4-Chloro-3-methyl-phenyl)-ethyl]-{4-[2-(2,5-dioxo-pyrrolidin-1-yl)-ethoxy]-3-methyl-benzyl}-amino)-cyclobutanecarboxylic acid]
3 | 195 | COc1cc(CN(C[C@H]2CC[C@H](C(=O)O)CC2)C(C)c2ccc3c(c2)CCO3)ccc1OCCn1c(=O)ccn(C)c1=O (stereo partly drawn) [Example 59, trans-4-[([1-(2,3-Dihydro-benzofuran-5-yl)-ethyl]-{3-methoxy-4-[2-(3-methyl-2,6-dioxo-3,6-dihydro-2H-pyrimidin-1-yl)-ethoxy]-benzyl}-amino)-methyl]-cyclohexanecarboxylic acid]
4 | 13 | COc1cc(CN(C[C@H]2CC[C@H](C(=O)O)CC2)[C@H]2CCc3cc(Cl)ccc32)ccc1OCCN1C(=O)CCC1=O [Example 12, trans-4-[(((S)-5-Chloro-indan-1-yl)-{4-[2-(2,5-dioxo-pyrrolidin-1-yl)-ethoxy]-3-methoxy-benzyl}-amino)-methyl]-cyclohexanecarboxylic acid]
5 | 121 | CCC(c1ccc(Cl)cc1)N(Cc1ccc(OCCN2C(=O)CCC2=O)c(C)c1)C[C@H]1CC[C@H](C(=O)O)CC1 (stereo partly drawn) [Example 65, trans-4-[([1-(4-Chloro-phenyl)-propyl]-{4-[2-(2,5-dioxo-pyrrolidin-1-yl)-ethoxy]-3-methyl-benzyl}-amino)-methyl]-cyclohexanecarboxylic acid]
6 | 145 | COc1cc(CN(C[C@@H]2C[C@H]2C(=O)O)C(C)c2ccc3c(c2)CCO3)ccc1OCCN1C(=O)CCC1=O (stereo partly drawn) [Example 112, (1R,2R)-2-[([1-(2,3-Dihydro-benzofuran-5-yl)-ethyl]-{4-[2-(2,5-dioxo-pyrrolidin-1-yl)-ethoxy]-3-methoxy-benzyl}-amino)-methyl]-cyclopropanecarboxylic acid]
7 | 19 | COc1cc(CN(C[C@H]2CC[C@H](C(=O)O)CC2)[C@@H](C)c2ccc(Cl)cc2)ccc1OCCN1C(=O)CCC1=O [Example 5, trans-4-[([(S)-1-(4-Chloro-phenyl)-ethyl]-{4-[2-(2,5-dioxo-pyrrolidin-1-yl)-ethoxy]-3-methoxy-benzyl}-amino)-methyl]-cyclohexanecarboxylic acid]
8 | 163 | COc1cc(CN(C[C@H]2CC[C@H](C(=O)O)CC2)C(C)c2ccc3c(c2)CCO3)ccc1OCCN1C(=O)CCCC1=O (stereo partly drawn) [Example 38, trans-4-[([1-(2,3-Dihydro-benzofuran-5-yl)-ethyl]-{4-[2-(2,6-dioxo-piperidin-1-yl)-ethoxy]-3-methoxy-benzyl}-amino)-methyl]-cyclohexanecarboxylic acid]
9 | 70 | COc1cc(CN([C@H]2C[C@@H](C(=O)O)C2)[C@H](C)c2ccc3c(c2)CCO3)ccc1OCCn1c(=O)ccn(C)c1=O [Example 122, cis-3-([(R)-1-(2,3-Dihydro-benzofuran-5-yl)-ethyl]-{3-methoxy-4-[2-(3-methyl-2,6-dioxo-3,6-dihydro-2H-pyrimidin-1-yl)-ethoxy]-benzyl}-amino)-cyclobutanecarboxylic acid]
10 | 102 | Cc1cc(CN(C[C@H]2CC[C@H](C(=O)O)CC2)C(C)c2ccc(C#N)cc2)ccc1OCCN1C(=O)CCC1=O (stereo partly drawn) [Example 61, trans-4-[([1-(4-Cyano-phenyl)-ethyl]-{4-[2-(2,5-dioxo-pyrrolidin-1-yl)-ethoxy]-3-methyl-benzyl}-amino)-methyl]-cyclohexanecarboxylic acid]
11 | 294 | Cc1cc(CN([C@H]2C[C@@H](C(=O)O)C2)[C@H](C)c2ccc(Cl)cc2)ccc1OCCN1C(=O)CN(C)C1=O [Example 153, cis-3-([(R)-1-(4-Chloro-phenyl)-ethyl]-{3-methyl-4-[2-(3-methyl-2,5-dioxo-imidazolidin-1-yl)-ethoxy]-benzyl}-amino)-cyclobutanecarboxylic acid]
12 | 6500 | Cc1cc([C@H](C)N(Cc2ccc(OCCN3C(=O)CCC3=O)c(C)c2)[C@H]2C[C@@H](C(=O)O)C2)ccc1Cl [Example 131, cis-3-([(S)-1-(4-Chloro-3-methyl-phenyl)-ethyl]-{4-[2-(2,5-dioxo-pyrrolidin-1-yl)-ethoxy]-3-methyl-benzyl}-amino)-cyclobutanecarboxylic acid]
13 | 56 | CCC(c1ccc2c(c1)CCO2)N(Cc1ccc(OCCN2C(=O)CCC2=O)c(C)c1)C[C@H]1CC[C@H](C(=O)O)CC1 (stereo partly drawn) [Example 69, trans-4-[([1-(2,3-Dihydro-benzofuran-5-yl)-propyl]-{4-[2-(2,5-dioxo-pyrrolidin-1-yl)-ethoxy]-3-methyl-benzyl}-amino)-methyl]-cyclohexanecarboxylic acid]
14 | 190 | COc1cc(CN(C[C@@H]2CC[C@H](C(=O)O)C2)[C@H](C)c2ccc3c(c2)CCO3)ccc1OCCN1C(=O)CCC1=O [Example 108, (1S,3R)-3-[([(R)-1-(2,3-Dihydro-benzofuran-5-yl)-ethyl]-{4-[2-(2,5-dioxo-pyrrolidin-1-yl)-ethoxy]-3-methoxy-benzyl}-amino)-methyl]-cyclopentanecarboxylic acid]
15 | 150 | Cc1cc(CN(C[C@H]2CC[C@H](C(=O)O)CC2)C2CCc3cc(Cl)ccc32)ccc1OCCN1C(=O)CCC1=O (stereo partly drawn) [Example 29, trans-4-[((5-Chloro-indan-1-yl)-{4-[2-(2,5-dioxo-pyrrolidin-1-yl)-ethoxy]-3-methyl-benzyl}-amino)-methyl]-cyclohexanecarboxylic acid]
16 | 38 | Cc1cc(CN(C[C@H]2CC[C@H](C(=O)O)CC2)[C@@H](C)c2ccc(Cl)cc2)ccc1OCCN1C(=O)CCC1=O [Example 7, trans-4-[([(S)-1-(4-Chloro-phenyl)-ethyl]-{4-[2-(2,5-dioxo-pyrrolidin-1-yl)-ethoxy]-3-methyl-benzyl}-amino)-methyl]-cyclohexanecarboxylic acid]
17 | 146 | COc1cc(CN(C[C@H]2CC[C@H](C(=O)O)CC2)C(C)c2ccc3c(c2)CCC3)ccc1OCCN1C(=O)CN(C)C1=O (stereo partly drawn) [Example 145, trans-4-[((1-Indan-5-yl-ethyl)-{3-methoxy-4-[2-(3-methyl-2,5-dioxo-imidazolidin-1-yl)-ethoxy]-benzyl}-amino)-methyl]-cyclohexanecarboxylic acid]
18 | 2870 | COc1cc(CN(C[C@H]2CC[C@H](C(=O)O)CC2)[C@H]2CCc3cc(Cl)ccc32)ccc1OCCN1C(=O)[C@H]2CC=CC[C@H]2C1=O [Example 155, trans-4-[(((S)-5-Chloro-indan-1-yl)-{4-[2-((3aS,7aR)-1,3-dioxo-1,3,3a,4,7,7a-hexahydro-isoindol-2-yl)-ethoxy]-3-methoxy-benzyl}-amino)-methyl]-cyclohexanecarboxylic acid; hydrochloride]
19 | 200 | COc1cc(CN(C[C@H]2CC[C@H](C(=O)O)CC2)[C@@H]2CCc3cc(Cl)ccc32)ccc1OCCN1C(=O)CCC1=O [Example 11, trans-4-[(((R)-5-Chloro-indan-1-yl)-{4-[2-(2,5-dioxo-pyrrolidin-1-yl)-ethoxy]-3-methoxy-benzyl}-amino)-methyl]cyclohexanecarboxylic acid]
20 | 525 | COc1cc(CN(C[C@H]2CC[C@H](C(=O)O)C2)[C@@H](C)c2ccc3c(c2)CCO3)ccc1OCCN1C(=O)CCC1=O [Example 110, (1S,3S)-3-[([(S)-1-(2,3-Dihydro-benzofuran-5-yl)-ethyl]-{4-[2-(2,5-dioxo-pyrrolidin-1-yl)-ethoxy]-3-methoxy-benzyl}-amino)-methyl]-cyclopentanecarboxylic acid]
21 | 71 | Cc1cc(CN(C[C@H]2CC[C@H](C(=O)O)CC2)[C@H]2CCc3c2ccc(Cl)c3F)ccc1OCCN1C(=O)CN(C)C1=O [Example 157, trans-4-[(((S)-5-Chloro-4-fluoro-indan-1-yl)-{3-methyl-4-[2-(3-methyl-2,5-dioxo-imidazolidin-1-yl)-ethoxy]-benzyl}-amino)-methyl]-cyclohexanecarboxylic acid]
22 | 169 | Cc1cc(CN(C[C@H]2CC[C@H](C(=O)O)CC2)[C@@H](C)c2ccc(Cl)cc2)ccc1OCCn1c(=O)ccn(C)c1=O [Example 58, trans-4-[([(S)-1-(4-Chloro-phenyl)-ethyl]-{3-methyl-4-[2-(3-methyl-2,6-dioxo-3,6-dihydro-2H-pyrimidin-1-yl)-ethoxy]-benzyl}-amino)-methyl]-cyclohexanecarboxylic acid]

Same assay, conditions: read-out: % at 10 μM; at 10 μM; displacement of 125I-CXCL10

Row | inhibition at 10 µM [%] | SMILES
23 | 37 | Cc1cc([C@@H](C)N(Cc2ccc(OCCN3C(=O)CCC3=O)c(C)c2)[C@H]2C[C@H](C(=O)O)C2)ccc1Cl [Example 128, trans-3-([(R)-1-(4-Chloro-3-methyl-phenyl)-ethyl]-{4-[2-(2,5-dioxo-pyrrolidin-1-yl)-ethoxy]-3-methyl-benzyl}-amino)-cyclobutanecarboxylic acid]
